According to publication PMC10477861, “Efficient Mining of Anticancer Peptides from Gut Metagenome” (Advanced Science, 2023):

Columns and labels:
Settings in all cases: 25 µM pACP, 24 h, maintenance medium 1% FBS, ratio of viability to vehicle (PBS), at least three technical repetitions
CT26 = assay: MTT primary screening of anticancer activity, CT26; assay type: cell-based, Murine
Description: (§1) We successfully chemically synthesized 40 pACPs for the purpose of in vitro or in vivo characterization of their potential anticancer efficacy. In the initial step, we conducted an in vitro primary screen of these 40 pACPs using a panel of 16 different cancer cell lines, including four human CRC lines (HT29, Caco2, HCT116, and […]), as well as 12 other cancer models (Table S4, Supporting Information). We deliberately selected a diverse panel of cell lines to assess the effect of pACPs across various genetic backgrounds. Briefly, the cancer cells were cultured in specific media (details provided in the Experimental Section) and then treated with pACPs at a final concentration of 25 µM. Peptides with minimum effective inhibition concentrations >25 µM were considered non‐ACPs. After exposure to pACPs, the survival rate of the cancer cells was measured using the MTT assay. Remarkably, 39 out of the 40 pACPs (97.5%) induced at least 20% inhibition in at least one cell line (Figure 3a and Table S5, Supporting Information). […] Thus, our method successfully identified pACPs with a very high rate of anticancer effects across various cancer cell lines.
(§2) To evaluate the activity of the 40 potentially effective pACPs, a panel of 16 cancer cell lines was treated, including human CRC cell lines (HT29, Caco‐2, HCT116). Details of the cell lines used, respective media, and culture conditions were presented in Table S1 (Supporting Information). Once the cells reached 60% confluence, it was incubated with each candidate peptide at a concentration of 25 µM pACPs for 24 h. Concurrently, the complete medium was replaced with a maintenance medium containing only 1% FBS. Subsequently, the viability of each cell line using the MTT Cell Proliferation and Cytotoxicity Assay Kit according to the manufacturer's instructions was assessed. […] For the CRC cell line CT26, it was calculated the CC50 value using two peptides (pACP1780 and pACP2283) with relevant data presented in Table S6 (Supporting Information). The calculation was performed using an online tool: https://www.aatbio.com/tools/ic50‐calculator.

MDA-MB-436 = assay: MTT primary screening of anticancer activity, MDA-MB-436; assay type: cell-based
Description: as §1, §2

SK-BR-3 = assay: MTT primary screening of anticancer activity, SK-BR-3; assay type: cell-based
Description: as §1, §2

BT474 = assay: MTT primary screening of anticancer activity, BT474; assay type: cell-based
Description: as §1, §2

HCT116 = assay: MTT primary screening of anticancer activity, HCT116; assay type: cell-based, Human
Description: as §1, §2

MDA-MB-468 = assay: MTT primary screening of anticancer activity, MDA-MB-468; assay type: cell-based
Description: as §1, §2

MDA-MB-453 = assay: MTT primary screening of anticancer activity, MDA-MB-453; assay type: cell-based
Description: as §1, §2

B16 = assay: MTT primary screening of anticancer activity, B16; assay type: cell-based, Mouse
Description: as §1, §2

T47D = assay: MTT primary screening of anticancer activity, T47D; assay type: cell-based
Description: as §1, §2

Hela = assay: MTT primary screening of anticancer activity, Hela; assay type: cell-based, Human
Description: as §1, §2

MDA-MB-231 = assay: MTT primary screening of anticancer activity, MDA-MB-231; assay type: cell-based
Description: as §1, §2

HT29 = assay: MTT primary screening of anticancer activity, HT29; assay type: cell-based, Human
Description: as §1, §2

EFM192A = assay: MTT primary screening of anticancer activity, EFM192A; assay type: cell-based
Description: as §1, §2

Caco2 = assay: MTT primary screening of anticancer activity, Caco2; assay type: cell-based, Human
Description: as §1, §2

LCC = assay: MTT primary screening of anticancer activity, LCC; assay type: cell-based
Description: as §1, §2

MCF7 = assay: MTT primary screening of anticancer activity, MCF7; assay type: cell-based
Description: as §1, §2

Sequence	Survival rate of cancer cells in primary screening (CT26)	Survival rate of cancer cells in primary screening (MDA-MB-436)	Survival rate of cancer cells in primary screening (SK-BR-3)	Survival rate of cancer cells in primary screening (BT474)	Survival rate of cancer cells in primary screening (HCT116)	Survival rate of cancer cells in primary screening (MDA-MB-468)	Survival rate of cancer cells in primary screening (MDA-MB-453)	Survival rate of cancer cells in primary screening (B16)	Survival rate of cancer cells in primary screening (T47D)	Survival rate of cancer cells in primary screening (Hela)	Survival rate of cancer cells in primary screening (MDA-MB-231)	Survival rate of cancer cells in primary screening (HT29)	Survival rate of cancer cells in primary screening (EFM192A)	Survival rate of cancer cells in primary screening (Caco2)	Survival rate of cancer cells in primary screening (LCC)	Survival rate of cancer cells in primary screening (MCF7)
NFWLSTLTGHGFCAVVSAARAGS [pACP1292]	1.00	0.74	1.00	1.00	1.00	1.00	1.00	1.00	0.76	1.00	1.00	1.00	0.40	1.00	1.00	0.79
NLTPPSRRATSPIFCVAKHRGGVCECPTIPQGIGEGVKGHSPFEVEG [pACP1349]	1.00	1.00	1.00	1.00	1.00	1.00	1.00	0.66	0.62	1.00	1.00	1.00	1.00	1.00	1.00	1.00
NQRKRTACDRRRSICDERIAAGICKRNFRCKKYLKINGTIGLSIRLGKLG [pACP1381]	1.00	1.00	1.00	1.00	1.00	1.00	1.00	0.76	1.00	1.00	1.00	0.69	1.00	0.69	1.00	1.00
NSFCRQTALCSVALGQYRTKIVRQMRRQIFRQMKQKAE [pACP1403]	1.00	1.00	1.00	1.00	1.00	0.73	1.00	1.00	0.71	1.00	1.00	1.00	1.00	1.00	1.00	1.00
NTGGIQKIQPLRKTDPLLAPCVSGRIGCPGRRCS [pACP1412]	1.00	1.00	1.00	1.00	1.00	1.00	1.00	0.80	0.74	1.00	1.00	1.00	1.00	1.00	1.00	1.00
PPSTRIISKVYPFKKHARGGWAIPGMMCSQMVER [pACP1472]	1.00	1.00	1.00	1.00	1.00	0.76	1.00	1.00	1.00	1.00	1.00	1.00	1.00	1.00	1.00	1.00
PVCRKEKKDGKRCVARYVEHFAGKDRRMQA [pACP1505]	1.00	1.00	1.00	1.00	1.00	1.00	1.00	0.78	0.76	1.00	1.00	1.00	1.00	1.00	1.00	1.00
QESDAKKYGVGGYFQGLLSQ [pACP1529]	1.00	1.00	1.00	1.00	1.00	1.00	1.00	1.00	0.75	1.00	1.00	1.00	1.00	1.00	1.00	1.00
RCPCKGNTHRRYSIMFCNFDCASLLKLLCGFFGKC [pACP1621]	1.00	1.00	1.00	1.00	1.00	1.00	1.00	0.79	0.72	1.00	1.00	1.00	0.79	1.00	1.00	1.00
